Common to all, as to type: cell-based
Assay [1] deals with human non-small-cell lung cancer cells (A549). Put plainly: CCK-8 cell proliferation assay, A549. Conditions: 48 h, read-out: Inhibition rates (%) A549. The procedure:
(§1) Initially, the target compounds were evaluated for antiproliferative activities against human non-small-cell lung cancer cells (A549), human breast cancer cells (MDA-MB-231), human esophageal cancer cells (KYSE30), and human colon cancer cells (HCT-116) at 5 μM. All of them were tested by the CCK-8 assay using 5-Fu as the positive control.
(§2) To investigate the effects of compounds on tumor cells’ proliferation, the cell proliferation assay was performed using the Cell Counting Kit-8 (#40203ES60, Yeasen, Shanghai, China). In brief, cells were seeded in a 96-well plate at 3 × 10^3 cells per well and cultured overnight. Then, the medium was replaced with fresh DMEM medium containing various concentrations of compounds or vehicle. After 48 h of incubation, the medium was exchanged with 100 μL of FBS-free DMEM medium supplemented with 10 μL of CCK8 added to each well and incubated at 37 °C for another 2 h. Absorbance at 450 nm was measured with a microplate reader (Thermo). The experiments were performed in triplicate. The mean ± SD values presented in the figures were calculated from three independent experiments. Comparisons between groups were evaluated using GraphPad Prism version 7.0 software. p < 0.05 was considered statistically significant.

The test system of assay [2] is human breast cancer cells (MDA-MB-231). Nature of the assay: CCK-8 cell proliferation assay, MDA-MB-231. To be noted: 48 h, read-out: Inhibition rates (%) MDA-MB-231. As for the experimental part:
as §1, §2

For assay [3], the system named is human esophageal cancer cells (KYSE30). Nature of the assay: CCK-8 cell proliferation assay, KYSE30. To be noted: KYSE-30, 48 h, read-out: Inhibition rates (%) KYSE30. The procedure: as §1, §2
Assay [4] concerns human colon cancer cells (HCT-116). Put plainly: CCK-8 cell proliferation assay, HCT-116. To be noted: for inhibition at 5 µM: read-out: Inhibition rates (%) HCT-116; for IC50: read-out: IC50 ± SD HCT116. As for the experimental part:
as §1
(§3) To further assess the antitumor activities of synthesized compounds against human colon cancer cells, the effects of each synthesized compound on the viability of two additional human colon cancer cells (SW620, DLD1) were evaluated, and normal human colonic epithelial cells (NCM460) were used as a control. It is obvious that all the synthesized compounds display potential antitumor activities against HCT116, DLD1, and SW620 cells. […] In addition, for SW620, the activities of most optimized compounds were slightly stronger than that of 5-Fu.
(§4) HCT116, SW620, and DLD1 were purchased from American Type Culture Collection (ATCC). SW620 and DLD1 were cultured in Dulbecco’s Modified Eagles medium (Thermo), and HCT116 was cultured in McCoy’s 5A medium (Thermo). All media were supplemented with 10% fetal bovine serum (Thermo) and 1% penicillin/streptomycin. All the cells were passaged at approximately 80% confluency. Cells were tested for mycoplasma every two months, and only mycoplasma-negative cells were used
as §2

Assay [5] concerns human colon cancer cells (DLD1). Put plainly: CCK-8 cell proliferation assay, DLD1. To be noted: read-out: IC50 ± SD DLD1. As for the experimental part:
as §3, §4, §2

Assay [6] deals with human colon cancer cells (SW620). Nature of the assay: CCK-8 cell proliferation assay, SW620. To be noted: read-out: IC50 ± SD SW620. As for the experimental part: as §3, §4, §2
In assay [7] the test system is normal human colonic epithelial cells (NCM460). Put plainly: CCK-8 cell proliferation assay, NCM460. Conditions: read-out: IC50 ± SD NCM460. The procedure:
as §3, §2

Setting [8] is: NCM460, CCK-8, 48 h, normal colonic epithelial cells.

Read-outs that look alike come from different tables or passages of the source.

`COC1C2CC3C(C)(C)OC(CC=C(C)C(=O)N4CCC(c5ccccc5)CC4)(C2=O)C32Oc3c(CC=C(C)C)c4c(c(O)c3C(=O)C12)C=CC(C)(C)O4` (stereo not drawn) [TH12-7]: the inhibition at 5 µM is 4.59 ± 1.27% in assay [1]; 2.99 ± 0.16% in assay [2]; -2.71 ± 0.83% in assay [3]; 87.1 ± 2.37% in assay [4] (HCT-116, 5 μM, CCK-8, 48 h). Also, the IC50 came out at 1520 ± 140 nM in assay [4] (HCT-116, CCK-8, 48 h); 1450 ± 250 nM in assay [5] (DLD-1, CCK-8, 48 h); 1310 ± 240 nM in assay [6] (SW-620, CCK-8, 48 h); 2970 ± 80 nM in assay [7] (setting [8]).
Consider `COC1C2CC3C(C)(C)OC(CC=C(C)C(=O)N4CCC(C)CC4)(C2=O)C32Oc3c(CC=C(C)C)c4c(c(O)c3C(=O)C12)C=CC(C)(C)O4` (stereo not drawn) [TH12-5], for which the inhibition at 5 µM came to 14.3 ± 2.84% in assay [1]; 0.69 ± 1.92% in assay [2]; 5.65 ± 3.77% in assay [3]; 85.5 ± 1.45% in assay [4] (HCT-116, 48 h). For the same molecule, the IC50 in assay [4] (HCT-116, 48 h) was 2370 ± 630 nM; in assay [5] (DLD-1, 48 h) it was 2490 ± 560 nM; in assay [6] (SW-620, 48 h), 1970 ± 340 nM; in assay [7] (NCM460, 48 h), 5110 ± 210 nM.
For `COC1C2CC3C(C)(C)OC(CC=C(C)C(=O)O)(C2=O)C32Oc3c(CC=C(C)C)c4c(c(O)c3C(=O)C12)C=CC(C)(C)O4` (stereo not drawn) [TH12-1, Moreollic acid], the inhibition at 5 µM in assay [1] was 18.38 ± 0.02%; in assay [2], -4.9 ± 0.04%; in assay [3], 20.76 ± 0.04%; in assay [4] (HCT-116, 48 h) it was 83.9 ± 1.1%. Further, the IC50 in assay [4] (HCT-116, 48 h) was 1710 ± 330 nM; in assay [5] (DLD-1, 48 h) it was 1440 ± 290 nM; in assay [6] (SW-620, 48 h), 1490 ± 370 nM; in assay [7] (NCM460, 48 h), 3160 ± 320 nM.
Take `COC1C2CC3C(C)(C)OC(CC=C(C)C(=O)N4CCCCC4)(C2=O)C32Oc3c(CC=C(C)C)c4c(c(O)c3C(=O)C12)C=CC(C)(C)O4` (stereo not drawn) [TH12-2]: the inhibition at 5 µM in assay [1] was 2.51 ± 4.32%; in assay [2] it was 0.14 ± 3.51%; in assay [3] it was 9.08 ± 2.44%; in assay [4] (HCT-116, 5 μM, CCK-8, 48 h), 86.1 ± 2.83%. Besides, the IC50 in assay [4] (HCT-116, CCK-8, 48 h) was found to be 1190 ± 250 nM; in assay [5] (DLD-1, CCK-8, 48 h), 1390 ± 190 nM; in assay [6] (SW-620, CCK-8, 48 h) it was 1150 ± 130 nM; in assay [7] (setting [8]) it was 4730 ± 40 nM.
With `COC1C2CC3C(C)(C)OC(CC=C(C)C(=O)N4CCSCC4)(C2=O)C32Oc3c(CC=C(C)C)c4c(c(O)c3C(=O)C12)C=CC(C)(C)O4` (stereo not drawn) [TH12-4], the inhibition at 5 µM amounted to 11.1 ± 5.41% in assay [1]; 3.13 ± 1.16% in assay [2]; 6.98 ± 1.99% in assay [3]; 16.3 ± 4.56% in assay [4] (HCT-116, 5 μM, CCK-8, 48 h). For the same molecule, the IC50 in assay [4] (HCT-116, CCK-8, 48 h) was 7620 ± 930 nM; in assay [5] (DLD-1, CCK-8, 48 h) it was 7890 ± 120 nM; in assay [6] (SW-620, CCK-8, 48 h), 7260 ± 870 nM; in assay [7] (setting [8]), 19900 ± 840 nM.
Consider `CONC(=O)C(C)=CCC12OC(C)(C)C3CC(C1=O)C(OC)C1C(=O)c4c(O)c5c(c(CC=C(C)C)c4OC132)OC(C)(C)C=C5` (stereo not drawn) [TH12-9], for which the inhibition at 5 µM is 8.54 ± 1.11% in assay [1]; -1.76 ± 0.43% in assay [2]; 4.49 ± 1.05% in assay [3]; 83.9 ± 2.07% in assay [4] (HCT-116, 5 μM, CCK-8, 48 h). Further, the IC50 in assay [4] (HCT-116, CCK-8, 48 h) came to 1680 ± 260 nM; in assay [5] (DLD-1, CCK-8, 48 h) it was 1670 ± 700 nM; in assay [6] (SW-620, CCK-8, 48 h) it was 1590 ± 440 nM; in assay [7] (setting [8]) it was 1630 ± 20 nM.
As to `COC1C2CC3C(C)(C)OC(CC=C(C)C(=O)N4CCOCC4)(C2=O)C32Oc3c(CC=C(C)C)c4c(c(O)c3C(=O)C12)C=CC(C)(C)O4` (stereo not drawn) [TH12-3], the inhibition at 5 µM in assay [1] worked out at 11.6 ± 4.25%; in assay [2], 1.71 ± 1.66%; in assay [3] it was 10.6 ± 2.66%; in assay [4] (HCT-116, 5 μM, CCK-8, 48 h), 87.4 ± 2.49%. Also, the concentration for half-maximal inhibition (IC50) stood at 1960 ± 200 nM in assay [4] (HCT-116, CCK-8, 48 h); 2310 ± 230 nM in assay [5] (DLD-1, CCK-8, 48 h); 1820 ± 330 nM in assay [6] (SW-620, CCK-8, 48 h); 4720 ± 30 nM in assay [7] (setting [8]).
Consider `COC1C2CC3C(C)(C)OC(CC=C(C)C(=O)N4CCC(N5CCCC5)CC4)(C2=O)C32Oc3c(CC=C(C)C)c4c(c(O)c3C(=O)C12)C=CC(C)(C)O4` (stereo not drawn) [TH12-8], for which the inhibition at 5 µM in assay [1] worked out at 4.8 ± 0.63%; in assay [2], 4.32 ± 1.96%; in assay [3] it was 4.04 ± 1.5%; in assay [4] (HCT-116, 5 μM, CCK-8, 48 h) it was 87.6 ± 2.76%. Further, the IC50 was 1000 ± 130 nM in assay [4] (HCT-116, CCK-8, 48 h); 1050 ± 230 nM in assay [5] (DLD-1, CCK-8, 48 h); 970 ± 100 nM in assay [6] (SW-620, CCK-8, 48 h); 2290 ± 10 nM in assay [7] (setting [8]).
Regarding `O=c1[nH]cc(F)c(=O)[nH]1` [5-Fu, 5-fluorouracil, reference compound], the inhibition at 5 µM in assay [1] was determined as 21.1 ± 1.79%; in assay [2] it was 26.6 ± 2.51%; in assay [3], 28 ± 2.27%; in assay [4] (HCT-116, 5 μM, CCK-8, 48 h), 74.5 ± 1.1%. The half-inhibitory concentration (IC50) in assay [4] (HCT-116, CCK-8, 48 h) amounted to 620 ± 20 nM; in assay [5] (DLD-1, CCK-8, 48 h), 7890 ± 750 nM; in assay [6] (SW-620, CCK-8, 48 h) it was 2680 ± 10 nM; in assay [7] (setting [8]) it was 13600 ± 590 nM.
